pIC50: −log10 of the molar value. Counter-ions that a name gives are not always drawn.
Molecular target: T1, HCV polymerase (Hepatitis C virus genotype 1b, UniProt P26663)
T1 construct: a region encoding NS5B (591 amino acids; J Virol 1991 Mar, 65(3), 1105-13) was amplified by PCR; 6 His (N); made in house; host or cells: Escherichia coli
Assay: biochemical
Settings: read-out: HCV polymerase inhibitory activity IC50

T1 sequence (P26663 2420-3010): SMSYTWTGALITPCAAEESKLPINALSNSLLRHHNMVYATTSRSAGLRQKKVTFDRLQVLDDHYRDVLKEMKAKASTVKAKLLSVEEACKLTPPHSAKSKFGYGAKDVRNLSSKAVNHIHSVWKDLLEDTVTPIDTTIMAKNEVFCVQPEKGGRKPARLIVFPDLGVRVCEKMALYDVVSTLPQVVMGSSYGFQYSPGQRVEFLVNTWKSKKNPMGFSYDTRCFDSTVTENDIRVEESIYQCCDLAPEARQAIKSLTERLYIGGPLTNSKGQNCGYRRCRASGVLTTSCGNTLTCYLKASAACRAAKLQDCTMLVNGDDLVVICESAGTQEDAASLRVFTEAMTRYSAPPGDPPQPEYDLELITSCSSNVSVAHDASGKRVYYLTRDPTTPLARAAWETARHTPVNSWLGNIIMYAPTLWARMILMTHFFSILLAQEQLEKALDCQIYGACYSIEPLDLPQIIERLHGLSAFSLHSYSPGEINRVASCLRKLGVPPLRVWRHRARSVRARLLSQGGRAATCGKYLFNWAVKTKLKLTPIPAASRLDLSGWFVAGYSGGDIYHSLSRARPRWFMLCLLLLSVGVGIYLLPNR

## O=C(O)c1ccc2c(c1)nc(-c1ccc(OCc3cc(C(=O)N4CC[C@H](O)[C@H](O)C4)ccc3-c3ccc(Cl)cc3)cc1)n2C1CCCCC1 (stereo in doubt) [Example 348, 2-{4-[2-(4-chlorophenyl)-5-(3,4-dihydroxypiperidin-1-ylcarbonyl)benzyloxy]phenyl}-1-cyclohexylbenzimidazole-5-carboxylic acid hydrochloride]
  pIC50: 7.89

## O=C(O)c1ccc2c(c1)nc(-c1ccc(/C=C/c3ccccc3)cc1)n2C1CCCCC1 [Example 11, 1-cyclohexyl-2-{4-[(E)-2-phenylvinyl]phenyl}-benzimidazole-5-carboxylic acid]
  pIC50: 6.28

## O=C(O)c1ccc2c(c1)nc(-c1ccc(OCc3ccccc3)cc1)n2C1CCCC1 [Example 12, 2-(4-benzyloxyphenyl)-1-cyclopentylbenzimidazole-5-carboxylic acid]
  pIC50: 6.22

## CC(C)(C)c1ccc(COc2ccc(-c3nc4cc(C(=O)O)ccc4n3C3CCCC3)cc2)cc1 [Example 43, 2-[4-(4-tert-butylbenzyloxy)phenyl]-1-cyclopentylbenzimidazole-5-carboxylic acid]
  pIC50: 6.24

## O=C(O)c1ccc(COc2ccc(-c3nc4cc(C(=O)O)ccc4n3C3CCCC3)cc2)cc1 [Example 44, 2-[4-(4-carboxybenzyloxy)phenyl]-1-cyclopentylbenzimidazole-5-carboxylic acid]
  pIC50: 6.02

## O=C(O)c1ccc2c(c1)nc(-c1ccc(OCc3ccc(Cl)cc3)cc1)n2C1CCCC1 [Example 45, 2-[4-(4-chlorobenzyloxy)phenyl]-1-cyclopentylbenzimidazole-5-carboxylic acid]
  pIC50: 6.40

## O=C(O)c1ccc2c(c1)nc(-c1ccc(OCc3ccc(Cl)s3)cc1)n2C1CCCC1 [Example 46, 2-{4-[(2-chloro-5-thienyl)methoxy]phenyl}-1-cyclopentylbenzimidazole-5-carboxylic acid]
  pIC50: 6.33

## O=C(O)c1ccc2c(c1)nc(-c1ccc(OCc3ccc(C(F)(F)F)cc3)cc1)n2C1CCCC1 [Example 47, 1-cyclopentyl-2-[4-(4-trifluoromethylbenzyloxy)phenyl]benzimidazole-5-carboxylic acid]
  pIC50: 6.27

## COc1ccc(COc2ccc(-c3nc4cc(C(=O)O)ccc4n3C3CCCC3)cc2)cc1 [Example 48, 1-cyclopentyl-2-[4-(4-methoxybenzyloxy)phenyl]benzimidazole-5-carboxylic acid]
  pIC50: 6.36

## O=C(O)c1ccc2c(c1)nc(-c1ccc(OCc3ccncc3)cc1)n2C1CCCC1 [Example 49, 1-cyclopentyl-2-[4-(4-pyridylmethoxy)phenyl]benzimidazole-5-carboxylic acid hydrochloride]
  pIC50: 6.03

## Cc1noc(C)c1COc1ccc(-c2nc3cc(C(=O)O)ccc3n2C2CCCC2)cc1 [Example 51, 1-cyclopentyl-2-{4-[(3,5-dimethyl-4-isoxazolyl)methoxy]phenyl}-benzimidazole-5-carboxylic acid]
  pIC50: 6.00

## O=C(O)c1ccc2c(c1)nc(-c1ccc(OCc3ccccc3Cl)cc1)n2C1CCCC1 [Example 54, 2-[4-(2-chlorobenzyloxy)phenyl]-1-cyclopentylbenzimidazole-5-carboxylic acid]
  pIC50: 6.25

## O=C(O)c1ccc2c(c1)nc(-c1ccc(OCc3cccc(Cl)c3)cc1)n2C1CCCC1 [Example 55, 2-[4-(3-chlorobenzyloxy)phenyl]-1-cyclopentylbenzimidazole-5-carboxylic acid]
  pIC50: 6.44

## O=C(O)c1ccc2c(c1)nc(-c1ccc(OCc3ccc(Cl)c(Cl)c3)cc1)n2C1CCCC1 [Example 68, 1-cyclopentyl-2-[4-(3,4-dichlorobenzyloxy)phenyl]benzimidazole-5-carboxylic acid]
  pIC50: 6.55

## O=C(O)c1ccc2c(c1)nc(-c1ccc(OC(c3ccccc3)c3ccccc3)cc1)n2C1CCCC1 [Example 70, 1-cyclopentyl-2-[4-(diphenylmethoxy)phenyl]benzimidazole-5-carboxylic acid]
  pIC50: 6.72

## O=C(O)c1ccc2c(c1)nc(-c1ccc(OCCc3ccccc3)cc1)n2C1CCCC1 [Example 71, 1-cyclopentyl-2-(4-phenethyloxyphenyl)benzimidazole-5-carboxylic acid]
  pIC50: 6.21

## O=C(O)c1ccc2c(c1)nc(-c1ccc(CCc3ccccc3)cc1)n2C1CCCCC1 [Example 77, 1-cyclohexyl-2-(4-phenethylphenyl)benzimidazole-5-carboxylic acid]
  pIC50: 6.29

## O=C(O)c1ccc2c(c1)nc(-c1ccc(OCc3cc(Cl)cc(Cl)c3)cc1)n2C1CCCCC1 [Example 81, 1-cyclohexyl-2-[4-(3,5-dichlorobenzyloxy)phenyl]benzimidazole-5-carboxylic acid]
  pIC50: 6.74

## O=C(O)c1ccc2c(c1)nc(-c1ccc(OC(c3ccccc3)c3ccccc3)cc1)n2C1CCCCC1 [Example 82, 1-cyclohexyl-2-[4-(diphenylmethoxy)phenyl]benzimidazole-5-carboxylic acid]
  pIC50: 7.01

## CC(C)(C)c1cc(COc2ccc(-c3nc4cc(C(=O)O)ccc4n3C3CCCCC3)cc2)cc(C(C)(C)C)c1 [Example 83, 1-cyclohexyl-2-[4-(3,5-di-tert-butylbenzyloxy)phenyl]-benzimidazole-5-carboxylic acid]
  pIC50: 6.28

## O=C(O)c1ccc2c(c1)nc(-c1ccc(OCCc3ccc4ccccc4c3)cc1)n2C1CCCCC1 [Example 85, 1-cyclohexyl-2-{4-[2-(2-naphthyl)ethoxy]phenyl}benzimidazole-5-carboxylic acid]
  pIC50: 6.77

## O=C(O)c1ccc2c(c1)nc(-c1ccc(OCc3cccc4ccccc34)cc1)n2C1CCCCC1 [Example 86, 1-cyclohexyl-2-[4-(1-naphthyl)methoxyphenyl]benzimidazole-5-carboxylic acid]
  pIC50: 6.89

## O=C(O)c1ccc2c(c1)nc(-c1ccc(N(Cc3ccccc3)Cc3ccccc3)cc1)n2C1CCCCC1 [Example 87, 1-cyclohexyl-2-[4-(dibenzylamino)phenyl]benzimidazole-5-carboxylic acid]
  pIC50: 6.10

## O=C(O)c1ccc2c(c1)nc(-c1ccc(OCc3ccccc3-c3ccccc3)cc1)n2C1CCCCC1 [Example 88, 2-[4-(2-biphenylylmethoxy)phenyl]-1-cyclohexylbenzimidazole-5-carboxylic acid]
  pIC50: 7.04

## O=C(O)c1ccc2c(c1)nc(-c1ccc(OC(Cc3ccccc3)Cc3ccccc3)cc1)n2C1CCCCC1 [Example 90, 1-cyclohexyl-2-[4-(dibenzylmethoxy)phenyl]benzimidazole-5-carboxylic acid]
  pIC50: 6.70

## O=C(O)c1ccc2c(c1)nc(-c1ccc(OCC(=O)c3ccccc3)cc1)n2C1CCCCC1 [Example 91, 2-(4-benzoylmethoxyphenyl)-1-cyclohexylbenzimidazole-5-carboxylic acid]
  pIC50: 6.28

## O=C(O)c1ccc2c(c1)nc(-c1ccc(OCCOc3ccccc3)cc1)n2C1CCCCC1 [Example 96, 1-cyclohexyl-2-{4-[2-(phenoxy)ethoxy]phenyl}benzimidazole-5-carboxylic acid]
  pIC50: 6.60

## O=C(O)c1ccc2c(c1)nc(-c1ccc(OCCCCCc3ccccc3)cc1)n2C1CCCCC1 [Example 98, 1-cyclohexyl-2-[4-(5-phenylpentyloxy)phenyl]benzimidazole-5-carboxylic acid]
  pIC50: 6.52

## O=C(O)c1ccc2c(c1)nc(-c1cc(OCc3ccccc3)no1)n2C1CCCCC1 [Example 99, 2-(3-benzyloxy-5-isoxazolyl)-1-cyclohexylbenzimidazole-5-carboxylic acid]
  pIC50: 6.28

## O=C(O)c1ccc2c(c1)nc(-c1ccc(OCc3ccccc3)nc1)n2C1CCCCC1 [Example 100, 2-(2-benzyloxy-5-pyridyl)-1-cyclohexylbenzimidazole-5-carboxylic acid]
  pIC50: 6.11

## O=C(O)c1ccc2c(c1)nc(-c1ccc(OCCc3cccc4ccccc34)cc1)n2C1CCCCC1 [Example 103, 1-cyclohexyl-2-{4-[2-(1-naphthyl)ethoxy]phenyl}benzimidazole-5-carboxylic acid]
  pIC50: 6.77

## O=C(O)c1ccc2c(c1)nc(-c1ccc(Oc3ccccc3OCc3ccccc3)cc1)n2C1CCCCC1 [Example 104, 2-[4-(2-benzyloxyphenoxy)phenyl]-1-cyclohexylbenzimidazole-5-carboxylic acid]
  pIC50: 7.14

## O=C(O)c1ccc2c(c1)nc(-c1ccc(Oc3cccc(OCc4ccccc4)c3)cc1)n2C1CCCCC1 [Example 105, 2-[4-(3-benzyloxyphenoxy)phenyl]-1-cyclohexylbenzimidazole-5-carboxylic acid]
  pIC50: 7.12

## O=C(O)c1ccc2c(c1)nc(-c1ccc(Oc3ccccc3O)cc1)n2C1CCCCC1 [Example 106, 1-cyclohexyl-2-[4-(2-hydroxyphenoxy)phenyl]benzimidazole-5-carboxylic acid]
  pIC50: 6.40

## O=C(O)c1ccc2c(c1)nc(-c1ccc(Oc3cccc(O)c3)cc1)n2C1CCCCC1 [Example 107, 1-cyclohexyl-2-[4-(3-hydroxyphenoxy)phenyl]benzimidazole-5-carboxylic acid]
  pIC50: 6.96

## COc1ccccc1Oc1ccc(-c2nc3cc(C(=O)O)ccc3n2C2CCCCC2)cc1 [Example 108, 1-cyclohexyl-2-[4-(2-methoxyphenoxy)phenyl]benzimidazole-5-carboxylic acid]
  pIC50: 6.68

## COc1cccc(Oc2ccc(-c3nc4cc(C(=O)O)ccc4n3C3CCCCC3)cc2)c1 [Example 109, 1-cyclohexyl-2-[4-(3-methoxyphenoxy)phenyl]benzimidazole-5-carboxylic acid]
  pIC50: 6.96

## CCCOc1ccccc1Oc1ccc(-c2nc3cc(C(=O)O)ccc3n2C2CCCCC2)cc1 [Example 110, 1-cyclohexyl-2-[4-(2-propoxyphenoxy)phenyl]benzimidazole-5-carboxylic acid]
  pIC50: 6.62

## CCCOc1cccc(Oc2ccc(-c3nc4cc(C(=O)O)ccc4n3C3CCCCC3)cc2)c1 [Example 111, 1-cyclohexyl-2-[4-(3-propoxyphenoxy)phenyl]benzimidazole-5-carboxylic acid]
  pIC50: 6.85

## CC(C)=CCOc1ccccc1Oc1ccc(-c2nc3cc(C(=O)O)ccc3n2C2CCCCC2)cc1 [Example 112, 1-cyclohexyl-2-{4-[2-(3-methyl-2-butenyloxy)phenoxy]phenyl}-benzimidazole-5-carboxylic acid]
  pIC50: 6.96
